We go through 5 molecules from patent US10513500B2, “Crystalline forms of Lesinurad” (Apotex Inc., priority 2016, dated 2019).

Each structure is given as a SMILES string. Entries after “also recorded” stand apart in the source; their conditions may differ.

Series [1] can be described thus: PXRD study of crystal form stability on storage. The class given is physicochemical. As to the method:
Lesinurad Form APO-I can be characterized by a PXRD diffractogram comprising, among other peaks, characteristic peaks, expressed in degrees 2θ (±0.2°), at 7.8°, 15.1° and 27.0°. Preferably, the PXRD diffractogram further comprises at least three peaks, expressed in degrees 2θ (±0.2°), selected from the group consisting of: 14.5°, 15.6°, 16.4°, 17.6°, 18.5°, 19.9°, 22.1°, 23.5°, 25.9° and 29.3°. More preferably, the PXRD diffractogram further comprises peaks, expressed in degrees 2θ (±0.2°), at 14.5°, 15.6°, 16.4°, 17.6°, 18.5°, 19.9°, 22.1°, 23.5°, 25.9° and 29.3°. PXRD studies of a capped sample of Lesinurad Form APO-I have shown that this crystal form is stable following storage in a stability chamber maintained at 27° C./60% RH for 17 days.
Lesinurad Form APO-II can be characterized by a PXRD diffractogram comprising, among other peaks, characteristic peaks, expressed in degrees 2θ (±0.2°), at 7.9°, 15.2°, 16.5° and 25.4°. Preferably, the PXRD diffractogram further comprises at least two peaks, expressed in degrees 2θ (±0.2°), selected from the group consisting of: 14.4°, 15.7°, 17.7°, 18.4°, 22.1°, 22.8°, 23.5°, 26.5°, 28.8° and 29.3°. More preferably, the PXRD diffractogram further comprises peaks, expressed in degrees 2θ (±0.2°), at 14.4°, 15.7°, 17.7°, 18.4°, 22.1°, 22.8°, 23.5°, 26.5°, 28.8° and 29.3°. PXRD studies of a capped sample of Lesinurad Form APO-II have shown that this crystal form is stable following storage at room temperature and ambient humidity for 28 days.
Lesinurad Form APO-III can be characterized by a PXRD diffractogram comprising, among other peaks, characteristic peaks, expressed in degrees 2θ (±0.2°), at 6.2° and 19.9°. Preferably, the PXRD diffractogram further comprises at least four peaks, expressed in degrees 2θ (±0.2°), selected from the group consisting of: 7.6, 10.3°, 14.1°, 15.3°, 17.8°, 21.1°, 23.4°, 25.7° and 27.2°. More preferably, the PXRD diffractogram further comprises peaks, expressed in degrees 2θ (±0.2°), at 7.6°, 10.3°, 14.1°, 15.3°, 17.8°, 21.1°, 23.4°, 25.7° and 27.2°. PXRD studies of capped and uncapped samples of Lesinurad Form APO-III have shown that this crystal form is stable following storage in stability chambers maintained at 27° C./60% RH and 40° C./75% RH for 18 days.
Data were acquired on a PANanalytical X-Pert Pro MPD diffractometer with fixed divergence slits and an X'Celerator RTMS detector. The diffractometer was configured in Bragg-Brentano geometry; data was collected over a 2-theta range of 3° to 40° using CuKα radiation at a power of 40 mA and 45 kV. […] was removed using a divergent beam nickel filter. A step size of 0.017° was used. Samples were rotated to reduce preferred orientation effects. Samples were lightly ground prior to analysis. […]

For series [2] the following is noted: certain aqueous conditions, compared with Form 1; cited from earlier work.
Series [3] can be described thus: Stability study under stress conditions (impurities, area %). To be noted: for Major Unidentified Impurity: RRT in brackets. The format is physicochemical. How it is done:
(§1) The stability of Lesinurad Form APO-III was assessed under various stress conditions as outlined in Table 5.

Series [4] is described as follows: Hygroscopicity on storage in humid, high temperature environment. The class given is physicochemical. The settings on record: stress conditions of Table 5 (open sample, 40° C./75% RH, 21 days). As to the method:
as §1
The title solid form of Lesinurad was prepared according to the procedure in Example 14 of WO 2015/095703 A1. A suspension of Lesinurad (1 g) in ethyl acetate (63 mL) was sonicated at room temperature for 30 minutes in order to achieve dissolution. Proline (570 mg) was added to the solution, and the resulting suspension was stirred at room temperature for 26 hours, at which time the suspension was isolated by filtration to afford a solid (872.9 mg, 68% yield) having a PXRD diffractogram consistent with FIG. 22 in WO 2015/095703 A1. […]

For series [5] the following is noted: primary amine group; cited from earlier work.
The mark [6] stands for this setting: dry heat, heat/humidity and light exposure.
[7] abbreviates: light exposure 200 W·hr/m^2 UV + 1.2M LUX hr fluorescent.
[8] abbreviates: open sample, dry heat, solid state, 60° C./ambient RH, 21 days.
The mark [9] stands for this setting: open sample, heat/humidity, solid state, 40° C./75% RH, 21 days.
Where [10] appears, read: sample wrapped in foil (control), light exposure 200 W·hr/m^2 UV + 1.2M LUX hr fluorescent.

As for `O=C(O)CSc1nnc(Br)n1-c1ccc(C2CC2)c2ccccc12` [Lesinurad Form APO-II, Lesinurad], the “crystal form stability by PXRD” value in series [1] (capped sample, room temperature and ambient humidity, 28 days) is given as “no change; also recorded: stable”.
Turning to `O=C(O)CSc1nnc(Br)n1-c1ccc(C2CC2)c2ccccc12` [Form 2, Lesinurad], the “solubility” value in series [2] is “lower solubility than Form 1”.
In the case of `O=C(O)CSc1nnc(Br)n1-c1ccc(C2CC2)c2ccccc12` [Lesinurad Form APO-III, Lesinurad], the “Total Identified Impurity” value in series [3] (Non-stressed sample) is given as 0.09 area %; in series [3] (setting [7]), 0.10 area %; in series [3] (setting [8]), 0.10 area %; in series [3] (setting [9]) it was 0.09 area %; in series [3] (setting [10]), 0.10 area %. Also, the “Total Impurities” value is reported as 0.33 area % in series [3] (Non-stressed sample); 0.46 area % in series [3] (setting [7]); 0.40 area % in series [3] (setting [8]); 0.38 area % in series [3] (setting [9]); 0.42 area % in series [3] (setting [10]). The “Total Unidentified Impurity” value is given as 0.24 area % in series [3] (Non-stressed sample); 0.35 area % in series [3] (setting [7]); 0.30 area % in series [3] (setting [8]); 0.29 area % in series [3] (setting [9]); 0.32 area % in series [3] (setting [10]). In addition, the “Major Unidentified Impurity” value in series [3] (Non-stressed sample) was 0.08 (0.91) area %; in series [3] (setting [7]), 0.09 (0.92) area %; in series [3] (setting [8]) it was 0.09 (0.91) area %; in series [3] (setting [9]), 0.09 (0.91) area %; in series [3] (setting [10]) it was 0.09 (0.92) area %. Besides, in series [3] (setting [6]), the “loss of Lesinurad” value was “no significant loss”. For the same molecule, the “stability to stress conditions” value in series [3] (setting [6]) was “good stability”. In addition, the total degradation entry in series [3] (dry heat, heat/humidity and light exposure (Table 5)) is recorded as “less than 0.10%”. The “chemical and physical stability” value in series [3] (humid and high temperature environment) is “chemically and physically stable”. In series [4], the “hygroscopicity” value was “did not exhibit signs of hygroscopicity”. In addition, the “crystal form stability by PXRD” value in series [1] (capped and uncapped samples, 27° C./60% RH, 18 days) is reported as “no change; also recorded: stable”; in series [1] (capped and uncapped samples, 40° C./75% RH, 18 days), “no change; also recorded: stable”.
In the case of `O=C(O)CSc1nnc(Br)n1-c1ccc(C2CC2)c2ccccc12` [Lesinurad Form APO-I, Lesinurad], in series [1] (capped sample, stability chamber 27° C./60% RH, 17 days), the “crystal form stability by PXRD” value is “stable; also recorded: no change”.
For `O=C(O)[C@@H]1CCCN1` [Proline], in series [5], the pKa entry is listed as “approximately 10.6”.
